Measurements: US20100173281A1, “HCV NS3 protease replicon shuttle vectors” (priority 2009, published 2010)
Where two headings read alike, the source gives them in different places.

Legend:
[1] = system: replicon shuttle vector pSC_1b_NS3/Protease_EcoRV_AsiSI in Lunet Huh7 cells; experiment: Phenotypic replicon assay (transient replicon, firefly luciferase reporter), control shuttle vector; assay type: cell-based, HCV; conditions: read-out: Mean IC50
Procedure: Phenotypic Replicon Assay
Five micrograms of DNA plasmids were linearized by Sca I restriction enzyme (Roche). After overnight digestion at 37° C., the DNA was purified using Qiagen PCR purification kit. One microgram of linearized DNA was used for the in vitro transcription using T7 RiboMAX Express (Promega) following manufacturer's protocol. After 2 hours of incubation at 37° C., DNase treatment was performed for 30 minutes at 37° C. to remove the DNA template. In vitro transcribed RNA was then purified using RNeasy spin column (Qiagen) following manufacturer's protocol.
The hepatoma Lunet Huh-7 cell line were cultured at 37° C. in a humidified atmosphere with 5% CO2 in Dulbecco's Modified Eagle Medium (DMEM) supplemented with Glutamax™ and […] sodium pyruvate. The medium was further supplemented with 10% (v/v) FBS and 1% (v/v) penicillin/streptomycin. All reagents were from Invitrogen/Gibco.
Four million Lunet Huh7 cells were transfected with 5 μg of in vitro transcribed RNA using electroporation. Cells were then resuspended in 7.2 ml of DMEM containing 5% FBS and plated in 96-well plate at 50000 cells/well (in 90 μl final volume). Inhibitors (when used) were added 24 hours post-transfection in 3 fold dilutions at a final DMSO concentration of 1% and firefly luciferase reporter signal was read 72 hours after addition of inhibitors using the Luciferase Assay system (Promega). The IC50 values were assessed as the inhibitor concentration at which a 50% reduction in the level of firefly luciferase reporter was observed as compared to the level of firefly luciferase signal without the addition of compounds.
The replication capacity of the replicon shuttle vector, pSC—1b_NS3/Protease_EcoRV_AsiSI, as well as those of replicons that contain HCV genotype-1a and genotype-1b patient-derived NS3 protease domains were tested with the luciferase signal as the readout and the results are shown on FIG. 3. The inhibitory effects of the HCV protease inhibitors, BILN2061, VX-950 and NM107 were also tested on these replicons and the results are shown on Table 1.

[2] = system: replicons that contain HCV genotype-1a patient-derived NS3 protease domains in Lunet Huh7 cells; experiment: Phenotypic replicon assay (transient replicon, firefly luciferase reporter), genotype-1a patient-derived NS3 protease; assay type: cell-based
[3] = system: replicons that contain HCV genotype-1b patient-derived NS3 protease domains in Lunet Huh7 cells; experiment: Phenotypic replicon assay (transient replicon, firefly luciferase reporter), genotype-1b patient-derived NS3 protease; assay type: cell-based
[4] = Hepatitis C virus, Huh-7, read-out: Mean IC50, GT-1a patient sample RO-191
[5] = Hepatitis C virus, Huh-7, read-out: Mean IC50, GT-1a patient sample RO-192
[6] = Hepatitis C virus, Huh-7, read-out: Mean IC50, GT-1a patient sample RO-193
[7] = Hepatitis C virus, Huh-7, read-out: Mean IC50, GT-1a patient sample RO-194
[8] = Hepatitis C virus, Huh-7, read-out: Mean IC50, GT-1a patient sample RO-195
[9] = Hepatitis C virus, Huh-7, read-out: Mean IC50, GT-1a patient sample RO-207
[10] = Hepatitis C virus, Huh-7, read-out: Mean IC50, GT-1b patient sample 206
[11] = Hepatitis C virus, Huh-7, read-out: Mean IC50, GT-1b patient sample 301
[12] = Hepatitis C virus, Huh-7, read-out: Mean IC50, GT-1b patient sample PC232

With CCC[C@H](NC(=O)[C@@H]1[C@H]2CCC[C@H]2CN1C(=O)[C@@H](NC(=O)[C@@H](NC(=O)c1cnccn1)C1CCCCC1)C(C)(C)C)C(=O)C(=O)NC1CC1 [VX-950] the IC50 ([1]; Hepatitis C virus, Huh-7, 72 h) was 0.16 nM, the IC50 [2, 4] was 0.057 nM and the IC50 [2, 5] was 0.068 nM. The IC50 [2, 6] was 0.132 nM, the IC50 [2, 7] was 0.052 nM and the IC50 [2, 8] was 0.028 nM. For the same compound, the IC50 [2, 9] was 0.083 nM, the IC50 [3, 10] was 0.175 nM and the IC50 [3, 11] was 0.162 nM. It also gave an IC50 [3, 12] of 0.166 nM.
In the case of C[C@@]1(O)[C@H](O)[C@@H](CO)O[C@H]1n1ccc(N)nc1=O [NM107], the IC50 ([1]; replicon control pSC_1b_NS3/Protease_EcoRV_AsiSI, luciferase read 72 hours after addition of inhibitors) is reported as 283 nM, the IC50 ([2]; GT-1a patient sample RO-191, read-out: Mean IC50) is reported as 539 nM and the IC50 ([2]; GT-1a patient sample RO-192, read-out: Mean IC50) is reported as 554 nM. It also gave an IC50 ([2]; GT-1a patient sample RO-193, read-out: Mean IC50) of 640 nM, an IC50 ([2]; GT-1a patient sample RO-194, read-out: Mean IC50) of 509 nM and an IC50 ([2]; GT-1a patient sample RO-195, read-out: Mean IC50) of 312 nM. For the same compound, the IC50 ([2]; GT-1a patient sample RO-207, read-out: Mean IC50) was 1160 nM, the IC50 ([3]; GT-1b patient sample 206, read-out: Mean IC50) was 279 nM and the IC50 ([3]; GT-1b patient sample 301, read-out: Mean IC50) was 279 nM. The IC50 ([3]; GT-1b patient sample PC232, read-out: Mean IC50) was 449 nM.
In the case of COc1ccc2c(O[C@@H]3C[C@H]4C(=O)N[C@]5(C(=O)O)C[C@H]5/C=C\CCCCC[C@H](NC(=O)OC5CCCC5)C(=O)N4C3)cc(-c3csc(NC(C)C)n3)nc2c1 [BILN2061], the IC50 ([1]; Hepatitis C virus, Huh-7, 72 h) is reported as 0.489 nM, the IC50 [2, 4] is reported as 0.798 nM and the IC50 [2, 5] is reported as 0.34 nM. For the same compound, the IC50 [2, 6] was 0.298 nM, the IC50 [2, 7] was 0.665 nM and the IC50 [2, 8] was 0.629 nM. For the same compound, the IC50 [2, 9] was 0.386 nM, the IC50 [3, 10] was 0.643 nM and the IC50 [3, 11] was 0.378 nM. The IC50 [3, 12] was 0.468 nM.
